Assay results published in article PMC6797481, “Identification of an allosteric binding site on the human glycine transporter, GlyT2, for bioactive lipid analgesics” (eLife, 2019).

Key:
[1] = design: method as in Mostyn et al., 2019; details: ref Mostyn et al., 2019; cited from earlier work
[2] = biological target: T1, GlyT2 R439L mutant (Homo sapiens, UniProt Q9Y345, R439L); experiment: Glycine transport currents, two electrode voltage clamp, oocytes expressing GlyT2 R439L; assay type: cell-based
T1 construct: expressed in transfected cells; host or cells: Xenopus laevis oocytes (cRNA injection)
T1 sequence (Q9Y345 1-797 R439L): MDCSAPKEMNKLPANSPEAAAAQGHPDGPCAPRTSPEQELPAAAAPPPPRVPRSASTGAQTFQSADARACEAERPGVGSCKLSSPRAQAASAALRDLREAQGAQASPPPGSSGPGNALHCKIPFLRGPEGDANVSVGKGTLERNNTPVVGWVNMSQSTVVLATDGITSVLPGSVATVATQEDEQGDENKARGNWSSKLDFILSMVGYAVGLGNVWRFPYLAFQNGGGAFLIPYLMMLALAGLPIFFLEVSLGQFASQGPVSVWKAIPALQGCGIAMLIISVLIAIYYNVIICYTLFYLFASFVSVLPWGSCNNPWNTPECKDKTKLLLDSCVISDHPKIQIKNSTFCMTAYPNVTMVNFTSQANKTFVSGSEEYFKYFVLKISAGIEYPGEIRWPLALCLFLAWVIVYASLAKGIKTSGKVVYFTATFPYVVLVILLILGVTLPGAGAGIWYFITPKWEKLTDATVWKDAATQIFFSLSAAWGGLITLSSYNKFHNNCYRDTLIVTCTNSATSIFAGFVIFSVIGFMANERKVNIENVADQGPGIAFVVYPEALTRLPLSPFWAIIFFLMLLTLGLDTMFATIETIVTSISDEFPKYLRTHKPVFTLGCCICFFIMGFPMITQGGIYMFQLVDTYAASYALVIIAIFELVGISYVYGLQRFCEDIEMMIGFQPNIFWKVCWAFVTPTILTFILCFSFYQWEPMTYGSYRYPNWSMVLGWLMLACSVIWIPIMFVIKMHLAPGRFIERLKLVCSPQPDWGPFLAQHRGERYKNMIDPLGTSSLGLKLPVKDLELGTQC
Protocol: Glycine was first applied to establish maximal transport current.
Compounds were tested for inhibition of glycine transport on Xenopus laevis oocytes expressing mutant GlyT1 and GlyT2 transporters. n values are in brackets, with measurements taken from at least 2 batches of oocytes.

[3] = biological target: GlyT2 D469A mutant (Homo sapiens, UniProt Q9Y345, D469A); details: read-out: Glycine EC50; glycine transport, GlyT2 D469A (vestibule allosteric site)
Protocol: (§1) Human GlyT1b or GlyT2a (herein referred to as GlyT1 and GlyT2) cDNA were sub-cloned into the plasmid oocyte transcription vector (pOTV). Site-directed mutagenesis was performed using traditional PCR techniques, and sequences confirmed by the Australian Genome Research Facility (Sydney, Australia). WT and mutant plasmid DNA were linearised with SpeI (New England Biolabs (Genesearch) Arundel, Australia) and RNA transcribed by T7 RNA polymerase using the mMessagemMachine kit (Ambion, TX, USA).
(§2) Oocytes were extracted from female Xenopus laevis frogs and detached from follicle cell containing lobes by digestion with 2 mg/mL collagenase A (Boehringer, Mannheim, Germany). Defoliculated stage V-VI oocytes were injected with 4.6 ng of cRNA encoding WT or mutant transporter (Drummond Nanoinject, Drummond Scientific Co., Broomall, PA, USA). Surgical proceedures have been approved by the University of Sydney Animal Ethics Committee (protocol 2016/970). The oocytes were stored at 16–18°C for 2–5 days in ND96 solution (96 mM NaCl, 2 mM KCL, 1 mM MgCl2, 1.8 mM CaCl2, 5 mM HEPES, pH 7.55), supplemented with 2.5 mM sodium pyruvate, 0.5 mM theophylline, 50 µg/mL gentamicin and […] tetracycline.
(§3) 2–5 days following injection, glycine transport currents were measured at −60 mV using Geneclamp 500 amplifier (Axon Instruments, Foster City, CA, USA) with a Powerlab 2/20 chart recorder (ADInstruments, Sydney, Australia) and chart software (ADInstruments). All data were subsequently analysed using GraphPad Prism 7.02 (GraphPad Software, San Diego, CA).
(§4) The function of each mutant transporter was tested by measuring glycine concentration dependent transport currents in ND96 (96 mM Na^+) to drive transport. EC50 values were determined using the modified Michaelis-Menten equation:(1) I=([GIy].Imax)/EC50+[GIy] where I is current (nA), [Gly] is the concentration of glycine, Imax is the current generated by a maximal concentration of glycine (300 µM) and EC50 is the concentration of glycine that generates a half maximal current. Values are presented as mean ± SEM obtained fromn ≥3 cells from at least two batches of oocytes. To determine if mutations affected glycine transport, one way ANOVA tests were employed, with a Dunnett’s post-hoc test used for comparison with WT GlyT2. For L425I comparison with WT GlyT1 a two-tailed t-test was used. Statistical significance were represented as p<0.05 *, p<0.01 **, p<0.001 *** etc. in the following figures.
(§5) Glycine concentration response curves were performed on WT and mutant transporters to generate EC50 values. Transport currents were measured in the presence of increasing concentrations of glycine (1 – 300 μM).

[4] = biological target: GlyT2 E701A mutant (Homo sapiens, UniProt Q9Y345, E701A); details: read-out: Glycine EC50; glycine transport, GlyT2 E701A (vestibule allosteric site)
Protocol: as §1, §2, §3, §4, §5

[5] = test system: GlyT2 F569A/V/L mutants; details: glycine transport, GlyT2 F569A/V/L (TM8)
Protocol: as §1, §2, §3, §4, §5

[6] = biological target: GlyT2 P429A mutant (Homo sapiens, UniProt Q9Y345, P429A); details: glycine transport, GlyT2 P429A (TM5)
Protocol: as §1, §2, §3, §4, §5

[7] = biological target: GlyT2 Q473A mutant (Homo sapiens, UniProt Q9Y345, Q473A); details: read-out: Glycine EC50; glycine transport, GlyT2 Q473A (vestibule allosteric site)
Protocol: as §1, §2, §3, §4, §5

[8] = biological target: GlyT2 S696A mutant (Homo sapiens, UniProt Q9Y345, S696A); details: read-out: Glycine EC50; glycine transport, GlyT2 S696A (vestibule allosteric site)
Protocol: as §1, §2, §3, §4, §5

[9] = biological target: GlyT2 T472A mutant (Homo sapiens, UniProt Q9Y345, T472A); details: glycine transport, GlyT2 T472A (vestibule allosteric site)
Protocol: as §1, §2, §3, §4, §5

[10] = biological target: GlyT2 T634A mutant (Homo sapiens, UniProt Q9Y345, T634A); details: read-out: Glycine EC50; glycine transport, GlyT2 T634A (vestibule allosteric site)
Protocol: as §1, §2, §3, §4, §5

GlyT2 S696A mutant, sequence (Q9Y345 whole entry S696A): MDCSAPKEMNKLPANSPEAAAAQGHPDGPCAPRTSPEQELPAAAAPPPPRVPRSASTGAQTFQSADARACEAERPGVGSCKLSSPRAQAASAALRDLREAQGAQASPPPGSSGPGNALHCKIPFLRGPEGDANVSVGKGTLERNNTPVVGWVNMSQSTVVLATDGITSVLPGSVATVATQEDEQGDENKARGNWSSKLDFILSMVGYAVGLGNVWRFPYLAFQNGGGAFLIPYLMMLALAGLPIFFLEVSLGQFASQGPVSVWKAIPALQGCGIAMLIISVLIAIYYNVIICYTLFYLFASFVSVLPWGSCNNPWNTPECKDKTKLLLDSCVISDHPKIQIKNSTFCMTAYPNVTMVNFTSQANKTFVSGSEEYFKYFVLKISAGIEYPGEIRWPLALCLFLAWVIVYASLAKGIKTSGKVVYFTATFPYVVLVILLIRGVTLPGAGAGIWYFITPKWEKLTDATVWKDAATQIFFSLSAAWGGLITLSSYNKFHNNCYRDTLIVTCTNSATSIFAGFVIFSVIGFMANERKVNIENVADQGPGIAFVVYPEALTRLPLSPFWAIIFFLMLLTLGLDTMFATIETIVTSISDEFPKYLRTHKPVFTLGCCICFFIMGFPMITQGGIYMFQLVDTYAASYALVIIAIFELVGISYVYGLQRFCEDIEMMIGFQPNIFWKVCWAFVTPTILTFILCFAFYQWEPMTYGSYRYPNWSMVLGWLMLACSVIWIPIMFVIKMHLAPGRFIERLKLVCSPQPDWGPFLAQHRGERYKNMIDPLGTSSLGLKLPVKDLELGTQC
GlyT2 T472A mutant, sequence (Q9Y345 whole entry T472A): as the sequence (Q9Y345 whole entry S696A) above, with T472A, A696S counted along it
GlyT2 D469A mutant, sequence (Q9Y345 whole entry D469A): as the sequence (Q9Y345 whole entry S696A) above, with D469A, A696S counted along it
GlyT2 P429A mutant, sequence (Q9Y345 whole entry P429A): as the sequence (Q9Y345 whole entry S696A) above, with P429A, A696S counted along it
GlyT2 E701A mutant, sequence (Q9Y345 whole entry E701A): as the sequence (Q9Y345 whole entry S696A) above, with A696S, E701A counted along it
GlyT2 T634A mutant, sequence (Q9Y345 whole entry T634A): as the sequence (Q9Y345 whole entry S696A) above, with T634A, A696S counted along it
GlyT2 Q473A mutant, sequence (Q9Y345 whole entry Q473A): as the sequence (Q9Y345 whole entry S696A) above, with Q473A, A696S counted along it

Question: Which metabolic stability [1] does the source give for oleoyl d-Lysine here?
Answer: metabolically stable

Question: For `CCCCCCCC/C=C\CCCCCCCC(=O)N[C@@H](Cc1c[nH]c2ccccc12)C(=O)O` [oleoyl l-Tryptophan], which IC50 ([2]; GlyT2 R439L, mean (95% CI)) is on record?
Answer: 0.109 µM

Question: And the “% Max. inhibition” value ([2]; GlyT2 R439L, mean ± SEM)?
Answer: 75.3 ± 4.2 (p=0.1040) %

Question: Which results are given for `NCC(=O)O` [Glycine]?
Answer: EC50 ([2]; glycine transport, GlyT2 R439L (TM5)): 23 ± 4 µM; EC50 [3]: 110 ± 12.8 µM; EC50 [4]: 16.5 ± 0.87 µM; Glycine EC50 [5]: No transport currents; Glycine EC50 [6]: No transport currents; EC50 [7]: 498 ± 146 µM; EC50 [8]: 25.6 ± 2.7 µM; Glycine EC50 [9]: No transport currents; EC50 [10]: 28.6 ± 3.2 µM
